Data: ChEMBL document CHEMBL1129076 (J Med Chem, 1996)

How the values were obtained:
Vanilloid receptor [1] = target: T1, Vanilloid receptor (Rattus norvegicus, UniProt Q9ERZ8+Q9WUD2+O35433); assay: Calcium +2 uptake into Dorsal Root Ganglion(DRG) neurons; assay type: functional, tissue-based
[2] = target: Transient receptor potential cation channel subfamily V member 1 (Rattus norvegicus, UniProt O35433); assay: Binding affinity against Vanilloid receptor in dorsal Root Ganglion (DRG) membranes using [3H]RTX binding assay.; assay type: tissue-based
Vanilloid receptor [3] = target: T1, Vanilloid receptor; assay: Ability to stimulate uptake of Calcium into Dorsal Root Ganglion(DRG) neurons; assay type: functional, tissue-based
[4] = target: Transient receptor potential cation channel subfamily V member 1 (Rattus norvegicus) (UniProt O35433); assay: Relative potency(RTX) against Dorsal Root Ganglion (DRG) membranes using RTX binding assay.; assay type: functional, tissue-based
[5] = target: Transient receptor potential cation channel subfamily V member 1 (Rattus norvegicus) (UniProt O35433); assay: Binding affinity against Vanilloid receptor in dorsal root ganglion (DRG) membranes relative to resinferatoxin (RTX); not tested; assay type: tissue-based
[6] = target: Transient receptor potential cation channel subfamily V member 1 (Rattus norvegicus) (UniProt O35433); assay: Relative potency against RTX binding to Dorsal Root Ganglion (DRG) membranes; assay type: functional, tissue-based

Sequence of Transient receptor potential cation channel subfamily V member 1 (O35433 whole entry): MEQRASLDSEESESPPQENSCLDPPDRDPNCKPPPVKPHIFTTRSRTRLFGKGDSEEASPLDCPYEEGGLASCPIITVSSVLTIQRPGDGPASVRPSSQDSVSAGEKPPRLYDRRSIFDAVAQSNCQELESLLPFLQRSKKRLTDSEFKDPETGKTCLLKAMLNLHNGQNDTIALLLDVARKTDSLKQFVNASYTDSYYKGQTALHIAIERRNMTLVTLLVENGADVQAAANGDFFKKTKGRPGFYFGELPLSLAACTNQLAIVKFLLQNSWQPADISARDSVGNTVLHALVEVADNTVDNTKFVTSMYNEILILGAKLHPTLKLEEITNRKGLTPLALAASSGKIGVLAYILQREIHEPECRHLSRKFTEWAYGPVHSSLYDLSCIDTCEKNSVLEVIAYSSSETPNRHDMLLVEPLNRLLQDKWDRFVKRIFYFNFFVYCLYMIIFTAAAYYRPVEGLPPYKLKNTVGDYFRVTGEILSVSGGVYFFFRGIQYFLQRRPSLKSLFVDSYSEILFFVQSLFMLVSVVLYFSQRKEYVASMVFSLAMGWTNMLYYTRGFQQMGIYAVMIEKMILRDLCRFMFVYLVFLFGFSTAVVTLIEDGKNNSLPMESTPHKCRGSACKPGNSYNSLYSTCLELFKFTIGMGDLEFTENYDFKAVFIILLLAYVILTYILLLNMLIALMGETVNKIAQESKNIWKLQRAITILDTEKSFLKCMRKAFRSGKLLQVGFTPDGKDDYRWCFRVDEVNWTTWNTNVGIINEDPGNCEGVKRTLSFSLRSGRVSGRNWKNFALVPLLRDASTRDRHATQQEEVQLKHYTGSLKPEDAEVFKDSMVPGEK
Sequence of Transient receptor potential cation channel subfamily V member 1 (Rattus norvegicus) (O35433 whole entry): as above

SMILES | EC50 (Vanilloid receptor [1]) [nM] | Ki [2] [nM] | EC50 (Vanilloid receptor [3]) [nM] | Relative Potency [4] | Relative affinity [5] | Relative Potency [6]
CCCCCCCCC(=O)NCc1ccc(O)c(OC)c1 [NONIVAMIDE] | > 550 |  |  |  |  | 
C=C(C)[C@@]12C[C@@H](C)C34OC(Cc5ccccc5)(OC1[C@@H]3C=C(COC(=O)Cc1cccc(OC)c1)C[C@]1(O)C(=O)C(C)=C[C@@H]41)O2 (stereo partly drawn) | 7.89 |  |  |  |  | 
COc1cc(CC(=O)OCC2=C[C@H]3[C@@H]4C(C)(C)[C@]4(OC(C)=O)C(OC(C)=O)[C@@H](C)C3(O)[C@@H]3C=C(C)C(=O)[C@@]3(OC)C2)ccc1O (stereo partly drawn) | 8510 |  |  |  |  | 
CCCCCCCCC(=O)NCc1cccc(OC)c1 | > 100000 |  |  |  |  | 
CCCCCCCCC(=O)NCc1ccc(OCCN)c(OC)c1 | 410 |  |  |  |  | 
C=C(C)[C@@]12C[C@@H](C)C34OC(C)(OC1[C@@H]3C=C(COC(=O)Cc1ccc(O)c(OC)c1)C[C@]1(O)C(=O)C(C)=C[C@@H]41)O2 (stereo partly drawn) |  | 3.2 | 13.2 | 0.122 | 0.038 | 
C=C(C)[C@@]12C[C@@H](C)C34OC(c5ccccc5)(OC1[C@@H]3C=C(COC(=O)Cc1ccc(O)c(OC)c1)C[C@]1(O)C(=O)C(C)=C[C@@H]41)O2 (stereo partly drawn) |  | 0.17 | 7.6 | 0.21 | 0.706 | 
CCCCCCCCC(=O)NCc1ccc(OC)c(OC)c1 | > 6410 |  |  |  |  | 
C=C(C)C12C[C@@H](C)C34OC(Cc5ccccc5)(OC1[C@@H]3C=C(COC(=O)Cc1ccc(OC)c(OC)c1)C[C@]1(O)C(=O)C(C)=CC41)O2 (single isomer, unassigned) |  | 1 | 14.89 | 0.107 | 0.12 | 
C=C(C)[C@@]12C[C@@H](C)C34OC(Cc5ccccc5)(OC1[C@@H]3C=C(COC(=O)Cc1ccc(OC)c(N=[N+]=[N-])c1)C[C@]1(O)C(=O)C(C)=C[C@@H]41)O2 (stereo partly drawn) | 10.64 |  |  |  |  | 
C=C(C)C12C[C@@H](C)C34OC(Cc5ccccc5)(OC1[C@@H]3C=C(COC(=O)Cc1ccc(OCCN)c(OC)c1)C[C@]1(O)C(=O)C(C)=CC41)O2 (single isomer, unassigned) |  | 4.3 | 13.04 | 0.123 | 0.028 | 
C=C(C)C12C[C@@H](C)C34OC(Cc5ccccc5)(OC1[C@@H]3C=C(CO)C[C@]1(O)C(=O)C(C)=CC41)O2 (single isomer, unassigned) |  | > 10000 | > 20000 | < 8e-05 | < 1e-05 | 
C=C(C)C12C[C@@H](C)C34OC(Cc5ccccc5)(OC1[C@@H]3C=C(COC(=O)Cc1ccc(O)c(OC)c1)C[C@]1(OC)C(=O)C(C)=C[C@@H]41)O2 (single isomer, unassigned) | 5.3 |  |  |  |  | 
C=C(C)[C@@]12C[C@@H](C)C34OC(Cc5ccccc5)(OC1[C@@H]3C=C(CNC(=O)Cc1ccc(O)c(OC)c1)C[C@]1(O)C(=O)C(C)=C[C@@H]41)O2 (stereo partly drawn) |  | 10.6 | 122 | 0.013 | 0.011 | 
COc1cc(CC(=O)OC/C=C/[C@H]2[C@H]3OC4(Cc5ccccc5)O[C@H]3CC[C@H]2O4)ccc1O | 9150 |  |  |  |  | 
C=C(C)[C@@]12C[C@@H](C)C34OC(Cc5ccccc5)(OC1[C@@H]3C=C(COC(C)=O)C[C@]1(O)C(=O)C(C)=C[C@@H]41)O2 (stereo partly drawn) | > 2000 |  |  |  |  | 
C=C(C)[C@]12C[C@@H](C)[C@@]34O[C@](Cc5ccccc5)(O[C@@H]1[C@@H]3C=C(COC(=O)Cc1ccc(O)c(OC)c1)C[C@]1(O)C(=O)C(C)=C[C@@H]41)O2 [RESINIFERATOXIN] |  | 0.12 | 1.6 | 1 | 1 | 
C=C(C)C12C[C@@H](C)C34OC(Cc5ccccc5)(OC1[C@@H]3C=C(COC(=O)Cc1ccccc1)C[C@]1(O)C(=O)C(C)=CC41)O2 (single isomer, unassigned) | 10.22 | 8.3 | 10.22 |  | 0.015 | 0.157
